From publication PMC6468747 (Cancers, 2019)
Read-outs that look alike come from different tables or passages of the source.

Columns and labels:
MDA-MB-231 cells = assay: MTT cell viability with/without siMnk1 knockdown; format: cell-based, human; conditions: 5 μM
Procedure: Small interfering RNA targeting the Mnk1 (siMnk1) gene and corresponding scramble siRNA sequence (siControl) were purchased from Ambion ((Waltham, MA, USA). Briefly, 3 × 10^5 MDA-MB-231 cells were seeded into 6 cm cell culture dish (Corning®) and incubated for 24 h in for normal culture medium. Subsequently, cells were subjected to transfection with 100 nM of siMnk1 or siControl using the RNAi Human/Mouse Starter Kit (Qiagen, (Qiagen, Hilden, Germany) following the manufacturer’s instructions for 48 h. For cell growth assay experiments, transfection complex was removed after 48 h, cells were washed twice with phosphate-buffered saline and replaced with normal growth medium. Twenty-four hour later, 5 μM of VNLG-152R was added to the growth media and harvested after 24 h. Non-transfected cells were also treated with 5 μM of VNLG-152R for 24 h. Protein silencing was confirmed by immunoblot analysis.

[1] = Plasma pharmacokinetics after single IV and PO dosing; format: in vivo, female CD1 mice; conditions: female, CD-1, mouse, plasma; for AUC(0-inf): read-out: AUC(0-inf)
Procedure: 5. In vivo Pharmacokinetics (PK) Determination: These studies were Performed by Charles River Laboratories (CRL), Discovery Services, 251 Ballardvale Street, Wilmington, MA 01887, USA.
The PK studies were performed according to the guidelines and approval of CRL Institutional Animal Care and Use Committee (IACUC) under IACUC approval no: P04172013.
A total of sixty‐four naïve female CD‐1 mice (including 6 spare animals) were received from Charles River Laboratories, Kingston, NY. Following an acclimation period, the animals were assigned to the study based on acceptable health as determined by a staff veterinarian. For dosing, animals were placed into six groups as detailed in the study design table below. All animals were fasted overnight prior to dosing and food was returned after the 4‐h post‐dose blood collections.
Each animal in Groups 1, 3 and 5 received a single administration of prepared test article by intravenous tail administration at a target dose level of 2 mg/kg and dose volume of 10 mL/kg. Each animal in Groups 2, 4 and 6 received a single administration of prepared test article by oral gavage at a target dose level of 20 mg/kg and at a dose volume of 10 mL/kg. Dosing was performed on August 13, 2015 as detailed in the study protocol and was completed without incident. Dose administration […]
Following dosing and at each sample collection time
Group Mices Test Compound Level Conc. Volume Dose Vehicle Route […]
Interim blood samples were collected in a leapfrog design from each animal by puncture of a submandibular vein and a terminal blood sample was collected from each animal by intracardiac puncture following euthanasia with CO2 as outlined in the sample collection table below.
All blood samples were transferred into tubes containing K2EDTA anticoagulant and placed on wet ice immediately after collection until centrifuged at 2200 × g for 10 min at […] to isolate plasma.
The resulting plasma was transferred to individual polypropylene tubes in a 96‐well plate format and immediately placed on dry ice until storage at nominally […] before transfer to the Test Facility’s bioanalysis group for concentration and HPLC analysis. Individual blood collection times are […]
Table S4. Sample Collections.
Collection Information Whole Blood for Plasma Whole Blood for Plasma
Subgroup A (n = 3) 5 min & 1 h post‐dose 8 h post‐dose
Subgroup B (n = 3) 15 min & 4 h post‐dose 12 h post‐dose
Subgroup C (n = 3) 30 min & 6 h post‐dose 24 h post‐dose
Subgroup D (n = 2) Not applicable 2 h post‐dose
Subgroup A (n = 3) 15 min & 2 h post‐dose 8 h post‐dose
Subgroup B (n = 3) 30 min & 4 h post‐dose 12 h post‐dose
Subgroup C (n = 3) 1 hr & 6 h post‐dose 24 h post‐dose
Collection conditions K2EDTA K2EDTA
Collection route Submandibular Intracardiac puncture
Volume/Time point 100 μL Maximum volume
The plasma samples for Groups 1‐6, Subgroups A‐C were analyzed for test article concentration using a Research Grade LC MS/MS Assay (RGA‐Level 1). The bioanalytical report, including plasma […]
Pharmacokinetic parameters were estimated from the plasma concentration‐time data using standard non‐compartmental methods and utilizing suitable analysis software (Watson 7.2 Bioanalytical LIMS, Thermo Electron Corp). Parameters were estimated using nominal sampling times relative to the start of each dose administration (within an acceptable tolerance limit).
Concentrations below the limit of quantification were excluded from the pharmacokinetic analysis.
The area under the plasma test item concentration versus time curve (AUC) was calculated using the linear‐log‐linear trapezoidal method. When practical, the terminal elimination phase of each concentration versus time curve was identified using at least the final three observed concentration values. The slope of the terminal elimination phase was determined using log linear regression on the unweighted concentration data.
Parameter Description of Parameter […]

[2] = test system: panel of 6 human TNBC cell lines; assay: MTT cell growth assay, summary over the panel; format: cell-based; conditions: Homo sapiens, 168 h, 7 days
Procedure: Figure 3 In vitro characterization, pharmacokinetics and toxicity profile of VNLG-152R and its two enantiomers. (A) HPLC chromatograms racemic VNLG-152R (left panel) and the resolved enantiomers VNLG-152E1 and VNLG-152E2 (right panel). The conditions of HPLC procedure are presented in Supplementary Materials. (B) Table summarizing GI50 values (µM) each cell line treated with VNLG-152R and its enantiomers. TNBC cell subtypes were treated with listed compound (0.1 nmol/L–100 µmol/L) for 7 days and the GI50 values for the anti-proliferative effects of the compounds were determined from dose response curves (by a nonlinear regression analysis using Graph Pad Prism). Data represents the results from six independent experiments for each cell line. (C) Plasma concentration versus time profile after intravenous (IV, 2 mg/kg each, top panel) or oral (PO, 20 mg/kg each, bottom panel) of VNLG-152R (red), VNLG-152E1 (purple) and VNLG-152E2 (blue) to female CD1 mice. Values represent the mean plasma concentrations from three mice per time point. (D) Table of the pharmacokinetic parameters of various compounds after IV and PO dosing. AUC = area under the curve, T1/2 = elimination half-life, Cmax = maximum plasma concentration, F (%) = oral bioavailability. (E) Effects of VNLG-152R, VNLG-152E1 and VNLG-152E2 on body weight and clinical observations at chronic dose termination of study. Three different doses, i.e., 10, 25, and 50 mg/kg/day (formulated in 40% β-cyclodextrin in saline) of each compound were administered daily by oral gavage for 14 days. Each group consisted of three mice. Loss in body weight, a clinical sign of toxicity was observed during the 14 days of dosing and the maximum tolerated dose (MTD) was estimated following established procedures. Changes in body weight were scored on a scale of 0–4 as follows as described under methods. […]

With `CC1=C(/C=C/C(C)=C/C=C/C(C)=C/C(=O)Nc2ccc(F)cc2)C(C)(C)CCC1n1ccnc1` (racemic) [VNLG-152R, 4-(±)-(1H-imidazol-1-yl)-N-(4-fluorophenyl)-(E)-retinamide] the “reduction in cell viability” value (MDA-MB-231 cells; non-transfected MDA-MB-231 cells) was ~ 75%, the “cell viability in cells harboring Mnk1 knockdown” value (MDA-MB-231 cells; siMnk1-transfected MDA-MB-231 cells) was “did not show any significant decrease in cell viability” and the bioavailability ([1]; PO 20 mg/kg vs IV 2 mg/kg, read-out: F (%) oral bioavailability) was 121%. The half-life ([1]; IV, 2 mg/kg) was 1.92 h, the AUC(0-inf) ([1]; IV, 2 mg/kg) was 1130 ng·h/mL and the half-life ([1]; PO, 20 mg/kg) was 9.25 h. The AUC(0-inf) ([1]; PO, 20 mg/kg) was 13700 ng·h/mL, the Cmax ([1]; PO, 20 mg/kg, read-out: Cmax) was 3750 ng/mL and the GI50 ([2]; mean over 6 TNBC cell lines, read-out: average GI50) was 970 nM. The GI50 ([2]; range over 6 TNBC cell lines, read-out: range of GI50) was 620 to 1860 nM.
